Assay results: patent US20260274895A1, “DE NOVO DESIGNED MEMBRANE-TRAVERSING AND ORALLY BIOAVAILABLE MACROCYCLES” (UNIVERSITY OF WASHINGTON, priority 2022, published 2026)
Read-outs that look alike come from different tables or passages of the source. Where a SMILES comes first, the peptide text is derived from it. [ ]: non-standard residue; d: D form. dNMeI = CC[C@@H](C)[C@@H](NC)C(=O)O; NMeF = CN[C@@H](Cc1ccccc1)C(=O)O; dNMeF = CN[C@H](Cc1ccccc1)C(=O)O; NMeL = CN[C@@H](CC(C)C)C(=O)O; dNMeL = CN[C@H](CC(C)C)C(=O)O; NMeV = CN[C@H](C(=O)O)C(C)C; NMeA = CN[C@@H](C)C(=O)O; dNMeA = CN[C@H](C)C(=O)O

Assays:
[1] = PAMPA
[2] = PAMPA, PAMPA_Papp_Avg (apparent permeability)
[3] = Parallel artificial membrane permeability assay (PAMPA); settings: average of three replicates; 16-20 hours incubation, 5% DMSO PBS

Compound | PAMPA_Papp_Avg (apparent permeability) [1] | Papp [2] | PAMPA_Papp_Avg (apparent permeability) [3]
CC(C)C[C@@H]1C(=O)N[C@H](CC(C)C)C(=O)N2CCC[C@@H]2C(=O)N2CCC[C@H]2C(=O)N(C)[C@H](CC(C)C)C(=O)N[C@H](CC(C)C)C(=O)N2CCC[C@@H]2C(=O)N2CCC[C@H]2C(=O)N1C [Design D8.4, pP*llpP*ll] (cyclo([dNMeL][dL][dP]P[dNMeL][dL][dP]P)) | 0.136 ×10⁻⁶ cm/s | 0.0358 ×10⁻⁶ cm/s | –
CC[C@H](C)[C@@H]1NC(=O)[C@H](Cc2ccccc2)N(C)C(=O)[C@H]2CCCN2C(=O)[C@@H](CC(C)C)N(C)C(=O)[C@@H](Cc2ccccc2)NC(=O)[C@H](C(C)C)NC(=O)[C@H](CC(C)C)NC(=O)[C@H]2CCCN2C(=O)[C@H](CC(C)C)NC(=O)[C@@H]2CCCN2C1=O [Design D10.50, LVf*lp*FIPLp] (cyclo(IPL[dP]LV[dF][dNMeL][dP][NMeF])) | – | 0.628 ×10⁻⁶ cm/s | –
CC[C@@H](C)[C@H]1NC(=O)[C@H]([C@@H](C)CC)NC(=O)[C@H](Cc2ccccc2)N(C)C(=O)[C@H]2CCCN2C(=O)[C@@H]([C@H](C)CC)NC(=O)[C@@H]([C@H](C)CC)N(C)C(=O)[C@H](CC(C)C)NC(=O)[C@H]2CCCN2C(=O)[C@@H]2CCCN2C(=O)[C@H](C(C)C)NC(=O)[C@H]2CCCN2C1=O [Design D11.4, VPpL*iip*FIip] (cyclo(I[dI][dP]VP[dP]L[dNMeI][dI][dP][NMeF])) | – | 1.84 ×10⁻⁶ cm/s | –
CC[C@H](C)[C@@H]1NC(=O)[C@@H](CC(C)C)N(C)C(=O)[C@H](CC(C)C)N(C)C(=O)[C@@H](Cc2ccccc2)NC(=O)[C@@H](CC(C)C)N(C)C(=O)[C@H]2CCCN2C(=O)[C@H]2CCCN2C(=O)[C@@H]2CCCN2C(=O)[C@@H](C(C)C)NC(=O)[C@@H]2CCCN2C(=O)[C@H](C)NC1=O [Design D11.11, Ppp*lf*L*lIAPv] (cyclo(AP[dV]P[dP][dP][dNMeL][dF][NMeL][dNMeL]I)) | – | 2.81 ×10⁻⁶ cm/s | –
CC[C@H](C)[C@@H]1NC(=O)[C@@H]2CCCN2C(=O)[C@H]2CCCN2C(=O)[C@@H](CC(C)C)NC(=O)[C@@H](CC(C)C)N(C)C(=O)[C@@H](C(C)C)NC(=O)[C@H](C(C)C)NC(=O)[C@H]2CCCN2C(=O)[C@@H]2CCCN2C(=O)[C@H]([C@@H](C)CC)NC(=O)[C@H](C)N(C)C1=O [Design D11.13, PpVv*llpPI*AI] (cyclo(I[NMeA]IP[dP]V[dV][dNMeL][dL][dP]P)) | – | 1.43 ×10⁻⁶ cm/s | –
CC(C)C[C@@H]1NC(=O)[C@H](CC(C)C)N(C)C(=O)[C@H]2CCCN2C(=O)[C@H]2CCCN2C(=O)[C@H](CC(C)C)NC(=O)[C@@H](CC(C)C)N(C)C(=O)[C@@H](C)NC(=O)[C@@H](CC(C)C)N(C)C(=O)[C@H]2CCCN2C(=O)[C@@H](CC(C)C)NC(=O)[C@@H](C)N(C)C1=O [Design D11.15, Lpp*LL*alp*la*l] (cyclo(L[dNMeA][dL][dP][dNMeL][dA][dNMeL]L[dP][dP][NMeL])) | – | – | 1.29 ×10⁻⁶ cm/s
CC(C)C[C@@H]1NC(=O)[C@@H](C)NC(=O)[C@H]2CCCN2C(=O)[C@@H]2CCCN2C(=O)[C@@H](C(C)C)NC(=O)[C@@H](CC(C)C)N(C)C(=O)[C@H]2CCCN2C(=O)[C@H]2CCCN2C(=O)[C@@H](C)N(C)C(=O)[C@H](CC(C)C)N(C)C(=O)[C@@H](Cc2ccccc2)NC1=O [Design D11.16, Lf*L*app*lvPpa] (cyclo(L[dF][NMeL][dNMeA][dP][dP][dNMeL][dV]P[dP][dA])) | – | 0.993 ×10⁻⁶ cm/s | –
CC[C@H](C)[C@@H]1NC(=O)[C@H](C(C)C)NC(=O)[C@@H](CC(C)C)N(C)C(=O)[C@H](Cc2ccccc2)NC(=O)[C@@H](CC(C)C)N(C)C(=O)[C@@H](C)N(C)C(=O)[C@H]2CCCN2C(=O)[C@@H]2CCCN2C(=O)[C@H](CC(C)C)NC(=O)[C@@H](C)N(C)C(=O)[C@@H]2CCCN2C1=O [Design D11.20, P*aLPp*a*lF*lVI] (cyclo(F[dNMeL]VIP[dNMeA]LP[dP][dNMeA][dNMeL])) | – | 1.1 ×10⁻⁶ cm/s | –
CC(C)C[C@@H]1NC(=O)[C@@H]2CCCN2C(=O)[C@@H](Cc2ccccc2)NC(=O)[C@H](C)N(C)C(=O)[C@H](CC(C)C)NC(=O)[C@H](CC(C)C)N(C)C(=O)[C@@H](C)NC(=O)[C@@H](CC(C)C)NC(=O)[C@@H]2CCCN2C(=O)[C@@H](Cc2ccccc2)NC1=O [SEQ ID NO 108, LfPla*LL*AfP] (cyclo(L[NMeA][dF]PL[dF]P[dL][dA][NMeL])) | – | 3.92 ×10⁻⁶ cm/s | –

The next lines start with results.

PAMPA_Papp_Avg (apparent permeability) [1] | Papp [2] | Compound | PAMPA_Papp_Avg (apparent permeability) [3]
– | 0.716 ×10⁻⁶ cm/s | CC(C)C[C@@H]1NC(=O)[C@@H](Cc2ccccc2)N(C)C(=O)[C@H](C(C)C)NC(=O)[C@H](C)NC(=O)[C@@H](C)NC(=O)[C@@H](Cc2ccccc2)N(C)C(=O)[C@@H]2CCCN2C(=O)[C@H](C(C)C)NC(=O)[C@@H]2CCCN2C(=O)[C@@H](C)NC1=O [Design D10.48, aPVP*faAV*fL] (cyclo(AV[dNMeF]L[dA]PVP[dNMeF][dA])) | –
– | 1.7 ×10⁻⁶ cm/s | CC[C@@H](C)[C@H]1NC(=O)[C@H](C)NC(=O)[C@@H](CC(C)C)N(C)C(=O)[C@H](CC(C)C)N(C)C(=O)[C@H](C(C)C)NC(=O)[C@@H]2CCCN2C(=O)[C@@H](CC(C)C)N(C)C(=O)[C@@H](C)N(C)C(=O)[C@@H](Cc2ccccc2)NC(=O)[C@@H]2CCCN2C(=O)[C@H]2CCCN2C1=O [Design D11.6, V*L*lAipPf*a*lP] (cyclo([dF][dNMeA][dNMeL]PV[NMeL][dNMeL]A[dI][dP]P)) | –
– | 0.206 ×10⁻⁶ cm/s | CC[C@H](C)[C@@H]1NC(=O)[C@@H]2CCCN2C(=O)[C@H]2CCCN2C(=O)[C@@H](Cc2ccccc2)NC(=O)[C@@H](CC(C)C)N(C)C(=O)[C@H](C(C)C)NC(=O)[C@@H](CC(C)C)NC(=O)[C@@H]2CCCN2C(=O)[C@H]2CCCN2C(=O)[C@@H](C)N(C)C(=O)[C@H](C(C)C)N(C)C1=O [Design D11.21, PI*V*apPlV*lfp] (cyclo(I[NMeV][dNMeA][dP]P[dL]V[dNMeL][dF][dP]P)) | –
– | 0.417 ×10⁻⁶ cm/s | CC(C)C[C@H]1NC(=O)[C@@H](C)NC(=O)[C@@H](C)NC(=O)[C@H]2CCCN2C(=O)[C@@H]2CCCN2C(=O)[C@H]2CCCN2C(=O)[C@@H](C)NC(=O)[C@@H](Cc2ccccc2)N(C)C(=O)[C@H]2CCCN2C(=O)[C@@H](CC(C)C)NC(=O)[C@@H](CC(C)C)NC1=O [Design D11.25, lp*fapPpaall] (cyclo([dP][dA][dA][dL][dL][dL][dP][dNMeF][dA][dP]P)) | –
– | 1.39 ×10⁻⁶ cm/s | CC[C@H](C)[C@@H]1NC(=O)[C@H](Cc2ccccc2)N(C)C(=O)[C@H]2CCCN2C(=O)[C@H]([C@@H](C)CC)NC(=O)[C@@H](C)N(C)C(=O)[C@@H](C)NC(=O)[C@@H]2CCCN2C(=O)[C@H]2CCCN2C(=O)[C@H](CC(C)C)NC(=O)[C@@H](CC(C)C)NC(=O)[C@H](CC(C)C)NC(=O)[C@H]2CCCN2C1=O [Design D12.6, p*FIpLILpPa*aI] (cyclo([dA][dNMeA]I[dP][NMeF]I[dP]L[dL]L[dP]P)) | –
– | 0.946 ×10⁻⁶ cm/s | CC(C)C[C@@H]1C(=O)N(C)[C@@H](Cc2ccccc2)C(=O)N[C@@H](C(C)C)C(=O)N2CCC[C@H]2C(=O)NCC(=O)N2CCC[C@H]2C(=O)N(C)[C@H](CC(C)C)C(=O)N[C@@H](C(C)C)C(=O)N[C@H](CC(C)C)C(=O)N1C [SEQ ID NO 69, *lvl*l*FVPGP] (cyclo(GP[dNMeL]V[dL][dNMeL][NMeF]VP)) | –
– | 2.69 ×10⁻⁶ cm/s | CC[C@@H](C)[C@H]1NC(=O)[C@H](CC(C)C)N(C)C(=O)[C@H]2CCCN2C(=O)[C@H](CC(C)C)NC(=O)[C@@H](Cc2ccccc2)N(C)C(=O)[C@H](CC(C)C)N(C)C(=O)[C@@H](C(C)C)NC(=O)[C@H](C)NC(=O)[C@H]2CCCN2C(=O)[C@@H]2CCCN2C1=O [SEQ ID NO 94, *L*fLp*LiPpAv] (cyclo(A[dV][NMeL][dNMeF]L[dP][NMeL][dI]P[dP])) | –
